Results published in patent publication US4219550A, “Cis- and trans- octahydropyridopyrrolobenzheterocycles” (E. I. Du Pont de Nemours and Company, priority 1978, dated 1980).
Where a name gives a salt, the structure may show the parent alone. Read-outs that look alike come from different tables or passages of the source.

Columns and labels:
[1] = test system: conditioned avoidance response; test: Rat conditioned avoidance response (CAR); assay type: in vivo, male Holtzman rats
Experimental: The tranquilizing activity of the compounds of this invention is evidenced by tests conducted in male white rats in which a conditioned avoidance response is interrupted following an oral dose of the drug. This test is predictive of human response to an antipsychotic (tranquilizing) drug. The method of Clark was used (Clark, R., Psychon. Sci. 6, 11, 1966).
The test animals, male Holtzman rats between 90 and 115 grams, were food deprived 18 hours prior to avoidance training. Test drugs were suspended in 0.5% Methocel.
The equipment consisted of a plexiglas pit 5"×5"×9" fitted with a metal floor grid which can be electrified via the output of a shock generator. The top end of the pit opened into a surrounding platform 12"×3-1/2" on all four sides. This pit fitted into a larger plexiglas housing which served both to support the pit and to distribute wires to (a) the electrified floor grid, (b) a sound speaker used for stimulus presentation and (c) a 40 watt incandescent bulb also used for stimulus presentation. The main housing was separate from but attached to a metal frame which supported a noise generator, shock generator, and timing/sequence device. The noise generator was a Grason-Stadler Model 1724, used in the 50 KHz bandwidth with output of -10DB. The two-line shock generator supplied a constant A/C current of 0.19 milliamperes, via constantly scrambled 10 HZ square wave output.
The rats were trained by giving each of them four successive trials 15 to 20 minutes apart with a conditioned stimulus (CS) of a 40-watt incandescent bulb and a white noise plus an unconditioned stimulus (US) of a 0.19 milliampere scrambled shock. Following the four CS+US trials each animal was given an avoidance learning criterion trial in which the CS was presented alone 10 seconds prior to the US.
Rats were dosed orally with compound of the invention or standard drug, 20 rats/dose. Each rat was tested at 60, 120 and 240 minutes after drug.

[2] = test system: tetrabenazine-induced sedation and depression; test: Mouse tetrabenazine (TBZ) antagonism (ptosis and exploratory activity); assay type: in vivo, Carworth CF1 S female mice
Experimental: This mouse test is predictive of human antidepressant response (Everett, "The Dopa Response Potentiation Test and Its Use in Screening for Antidepressant Drugs", pp 164 in "Antidepressant Drugs" [Proceedings of the First International Symposium], S. Garattini and M. N. G. Dukes, eds., 1967).
Groups of 10 Carworth CF1 S female mice, 18-21 g each, were fasted 1.5 hours and were intubated with antagonist compounds at oral doses of 0, 0.33, 1, 3, 9, 27 and 81 mg/kg in 0.20 ml of 1% Methocel®. The mice were challenged 30 minutes later with tetrabenazine (as the methane-sulfonate), 32 mg/kg intraperitoneally (dissolved in 0.20 ml 0.05 M KCl at pH 2.0). One hour after antagonist (30 minutes after tetrabenazine), the mice were examined for signs of exploratory activity and ptosis (eyelid closure). Normal exploratory activity (relief from sedation) was recorded when a mouse lifted by the tail from a group of 10 in a testing box and placed on a stainless steel testing box lid (12.5"×8" with 0.33" mesh) either turned its head horizontally 30° in both directions or moved to the edge of the screen within 10 seconds after being placed on the screen. Relief from ptosis was recorded when exactly two seconds after placing the mouse facing the observer, lid closure was less than 50% in both eyes.

[3] = test system: tetrabenazine-induced sedation and depression; test: as above; assay type: in vivo, Carworth CF1 S female mice; conditions: 30 mg/kg, footnote mark stands under PTOSIS
[4] = po, 1 h, read-out: ED50 TBZ ANTAG. EXPLOR.
[5] = po, 1 h, read-out: ED50 TBZ ANTAG. PTOSIS

For `CCCCN1CC[C@H]2[C@@H](C1)c1cccc3c1N2CCS3` (relative stereo) [CH2, S, n-C4H9, H, cis], the ED50 ([1]; po, read-out: ED50 CAR AVOID.) was 5.5 mg/kg, the ED50 [2, 4] was 14 mg/kg and the ED50 [2, 5] was 11 mg/kg.

`c1cc2c3c(c1)[C@@H]1CNCC[C@@H]1N3CCO2` (relative stereo) [Example 1, (+)-cis-1,2,6b,7,8,9,10,10a-Octahydropyrido[3', 4': 4,5]pyrrolo[1,2,3,-de][1,4]benzoxazine] was tested, and the ED50 ([1]; po, read-out: ED50 CAR AVOID.) was 2.2 mg/kg, the ED50 ([1]; po, read-out: ED50 CAR ESCAPE) was over 25 mg/kg and the ED50 [2, 4] was 23 mg/kg. It also gave an ED50 [2, 5] of 1.4 mg/kg.

Compound `Clc1ccc2c3c1[C@@H]1CNCC[C@@H]1N3CCO2` (relative stereo) [Example 2] has an ED50 ([1]; po, read-out: ED50 CAR AVOID.) of about 23 mg/kg, an ED50 ([1]; po, read-out: ED50 CAR ESCAPE) of over 50 mg/kg and an ED50 [2, 4] of 27 mg/kg. For the same compound, the ED50 [2, 5] was 4.3 mg/kg.

`c1cc2c3c(c1)[C@@H]1CN(C4CC4)CC[C@@H]1N3CCO2` (relative stereo) [Example 3] was tested, and the ED50 ([1]; po, read-out: ED50 CAR AVOID.) was 28 mg/kg, the ED50 [2, 4] was 24 mg/kg and the ED50 [2, 5] was 21 mg/kg.

In the case of `c1cc2c3c(c1)[C@@H]1CNCC[C@@H]1N3CCCO2` (relative stereo) [Example 4], the ED50 ([1]; po, read-out: ED50 CAR AVOID.) is reported as 2.2 mg/kg, the ED50 ([1]; po, read-out: ED50 CAR ESCAPE) is reported as 14 mg/kg and the ED50 [2, 4] is reported as 47 mg/kg. It also gave an ED50 [2, 5] of 1.6 mg/kg.

`c1cc2c3c(c1)[C@@H]1CNCC[C@@H]1N3CCS2` (relative stereo) [Example 5] gave an ED50 ([1]; po, read-out: ED50 CAR AVOID.) of 1.1 mg/kg, an ED50 [2, 4] of 0.4 mg/kg and an ED50 [2, 5] of 3.3 mg/kg.

`CN1CC[C@H]2[C@@H](C1)c1cccc3c1N2CCS3` (relative stereo) [Example 6] was tested, and the ED50 ([1]; po, read-out: ED50 CAR AVOID.) was 17 mg/kg, the ED50 [2, 4] was over 81 mg/kg and the ED50 [2, 5] was 7.2 mg/kg.

With `c1cc2c3c(c1)[C@@H]1CN(C4CC4)CC[C@@H]1N3CCS2` (relative stereo) [Example 7] the ED50 [2, 4] was 3.3 mg/kg and the ED50 [2, 5] was 1.1 mg/kg.

In the case of `c1cc2c3c(c1)[C@@H]1CNCC[C@@H]1N3CCCS2` (relative stereo) [Example 8], the “TBZ ANTAG. activity, subcutaneous (footnote *)” value [3] is reported as “active subcutaneously at 30 mg/kg”.

Work on `c1cc2c3c(c1)[C@@H]1CNCC[C@@H]1N3CCCS2` (relative stereo) [Example 8a] yielded an ED50 ([1]; po, read-out: ED50 CAR AVOID.) of 2.2 mg/kg, an ED50 [2, 4] of 54 mg/kg and an ED50 [2, 5] of 6.6 mg/kg.

For `c1cc2c3c(c1)[C@@H]1CN(C4CC4)CC[C@@H]1N3CCCS2` (relative stereo) [Example 9], the ED50 [2, 4] was 68 mg/kg and the ED50 [2, 5] was 68 mg/kg.

Work on `CC(C)N1CC[C@H]2[C@@H](C1)c1cccc3c1N2CCS3` (relative stereo) [Example 11] yielded an ED50 ([1]; po, read-out: ED50 CAR AVOID.) of 5.5 mg/kg, an ED50 [2, 4] of 14 mg/kg and an ED50 [2, 5] of 11 mg/kg.

Work on `c1cc2c3c(c1)[C@H]1CN(C4CC4)CC[C@@H]1N3CCO2` (relative stereo) [Example 17] yielded an ED50 [2, 4] of 11.2 mg/kg and an ED50 [2, 5] of 7.5 mg/kg.

With `CN1CC[C@H]2[C@H](C1)c1cccc3c1N2CCS3` (relative stereo) [Example 18] the ED50 ([1]; po, read-out: ED50 CAR AVOID.) was 28 mg/kg, the ED50 [2, 4] was 6.5 mg/kg and the ED50 [2, 5] was 6.5 mg/kg.

Work on `CN(C)CCC=C1c2ccccc2CCc2ccccc21` [Amitriptyline · HCl, Amitriptyline, reference compound] yielded an ED50 ([1]; oral, 20 rats/dose, tested at 60, 120 and 240 min, avoidance, read-out: ED50 CAR AVOID.) of 116 mg/kg, an ED50 ([2]; oral antagonist, tetrabenazine 32 mg/kg i.p. 30 min later, examined 1 h after antagonist, exploratory activity (relief from sedation), read-out: ED50 TBZ ANTAG. EXPLOR.) of 4.3 mg/kg and an ED50 ([2]; oral antagonist, tetrabenazine 32 mg/kg i.p. 30 min later, examined 1 h after antagonist, relief from ptosis, read-out: ED50 TBZ ANTAG. PTOSIS) of 1.6 mg/kg.

`CN(C)CCCN1c2ccccc2Sc2ccc(Cl)cc21` [Chlorpromazine · HCl, Chlorpromazine, reference compound] showed an ED50 ([1]; po, read-out: ED50 CAR AVOID.) of 5.4 mg/kg, an ED50 ([1]; po, read-out: ED50 CAR ESCAPE) of about 34 mg/kg and an ED50 [2, 4] of over 81 mg/kg. For the same compound, the ED50 [2, 5] was over 81 mg/kg.

Work on `CC1CN2c3c(cccc3[C@@H]3CNCC[C@@H]32)S1` (stereo partly drawn) [Example 10] yielded an ED50 ([1]; po, read-out: ED50 CAR AVOID.) of 8.5 mg/kg, an ED50 ([1]; po, read-out: ED50 CAR ESCAPE) of about 38 mg/kg and an ED50 [2, 4] of 27 mg/kg. The ED50 [2, 5] was 23 mg/kg.

Compound `CCN1CC[C@@H]2[C@@H](C1)c1cccc3c1N2CCS3` [Example 16, (+)-trans-8-Ethyl-1,2,6b, 7,8,9,10,10a-octahydropyrido[3',4':4,5]pyrrolo[1,2,3-de][1,4]benzothiazine] has an ED50 ([1]; po, read-out: ED50 CAR AVOID.) of 6.2 mg/kg, an ED50 [2, 4] of 10.8 mg/kg and an ED50 [2, 5] of 7.5 mg/kg.
